According to article PMC8355244, “A fragment-based approach identifies an allosteric pocket that impacts malate dehydrogenase activity” (Communications Biology, 2021):
Like-named read-outs stand apart in the source and are kept apart here.

Target: T1, WT PfMDH (Plasmodium falciparum, UniProt Q6VVP7)
T1 construct: The full-length WT PfMDH gene was cloned into pETM-13; made in house; host or cells: E. coli Rosetta 2 (DE3) pLysS
Assay: Activity screening of 4DT / 4-phenylthiazol-2-amine derivatives (oxidation of malate, absorbance at 340 nm)
Type: biochemical
Details: for inhibition at 500 µM: Dunnett's multiple comparisons test, read-out: Mean Diff. (positive control vs. compound); for Slope repl1 / Slope repl2: linear regression slope of absorbance 340 nm vs time; for Slope normalized repl1: slope relative to control = 1, replicate 1; for Slope normalized repl2: slope relative to control = 1, replicate 2
Procedure: The oxidation of malate to oxaloacetate was assayed spectrophotometrically in flat-bottomed Corning 96-well microplates in a total volume of 250.0 µl in 50 mM glycine buffer pH 10.2[24] with an additional 400 mM NaCl for protein stability. The increase of absorbance at 340 nm was recorded in kinetic mode using a Tecan Spark multimode microplate reader at 298 K. A mastermix of 50 mM NAD+ and 44 μM PfMDH was used for both the screening and kinetics experiments. The final concentration of protein and cofactor were […], respectively. Positive control groups were set (absence of compound) in the same plate as the treated group. The absorbance from the background noise was subtracted from the data and then a linear regression model was employed in order to get the line slope from the first 5 min of the reaction. The percentage of enzymatic activity has been calculated as described by Eq. (1)1 enzymeactivity(%)=slopetreated/slopepositivecontrol*100
1.3 µL of derivatives of 4-phenylthiazol-2-amine in 100% DMSO were mixed with 237.7 µL of a mastermix of WT PfMDH previously incubated with NAD+. The final compound concentration used in this screening was 500 µM in the presence of 0.5% (v/v) DMSO. The microplate was sealed with silver foil for 1-h incubation at 25–35 °C. Finally, reactions in both the samples and control wells were started upon the addition of 13.0 µL of 5 mM malate). At the end of the experiments, the reaction of the plate was spectrophotometrically assayed at 600 nm in order to identify turbidity due to the low solubility of the compound. All measurements were performed in duplicate.

[1] = 500 µM compound, Dunnett test details, positive control mean 100, n 2, read-out: Mean 2 (mean % enzymatic activity of treated group)
[2] = 500 µM compound, control 100%, replicate 1, read-out: % enzymatic activity repl1
[3] = 500 µM compound, control 100%, replicate 2, read-out: % enzymatic activity repl2

T1 sequence (Q6VVP7 entry or part of it): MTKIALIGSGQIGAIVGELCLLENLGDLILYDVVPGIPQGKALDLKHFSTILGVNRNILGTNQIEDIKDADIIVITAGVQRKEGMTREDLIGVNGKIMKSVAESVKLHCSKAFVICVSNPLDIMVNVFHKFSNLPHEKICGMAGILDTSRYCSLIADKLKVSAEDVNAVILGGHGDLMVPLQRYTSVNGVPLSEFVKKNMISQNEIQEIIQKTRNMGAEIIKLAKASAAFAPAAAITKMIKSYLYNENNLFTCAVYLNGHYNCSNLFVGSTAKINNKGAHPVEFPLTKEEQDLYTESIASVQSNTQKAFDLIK

SMILES | remaining activity at 500 µM [1] | inhibition at 500 µM (500 µM compound) | remaining activity at 500 µM [2] | remaining activity at 500 µM [3] | Slope repl1 (500 µM compound, replicate 1) | Slope repl2 (500 µM compound, replicate 2) | Slope normalized repl1 (500 µM compound) | Slope normalized repl2 (500 µM compound) | remaining activity at 500 µM (read-out: enzyme activity)
Nc1nc(-c2ccc(F)c(F)c2)cs1 [1a] | 62% | 38.5% | 64% | 59% | 0.02136 | 0.02071 | 0.6412 | 0.591 | 62%
CC(C)(C)OC(=O)CNC(=O)c1cc(-c2cccs2)on1 [4b] | 21% | 79.5% | 22% | 19% | 0.007266 | 0.006583 | 0.2181 | 0.1879 | 20%
Nc1cc(-c2ccccc2)[nH]n1 [5b] | 53% | 47.5% | 63% | 42% | 0.02092 | 0.01483 | 0.628 | 0.4232 | 53%
